Measurements: article PMC11310081, “Deep-learning-enabled antibiotic discovery through molecular de-extinction” (Nature Biomedical Engineering, 2024)
≈ marks a conversion by molar mass, not a printed value. Peptide text beside a SMILES is read from it.

How the values were obtained:
HEK293T cells = conditions: 24 h
Outline: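 5,000 cells/well seeded a day ahead in DMEM with 10% FBS, then treated with peptides; viability by MTT (0.5 mg/ml, 4 h, 37 °C), formazan in acidic isopropanol read at 570 nm. Concentration causing 50% lysis from non-linear regression; three biological replicates, two technical each.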

[1] = system: E. faecalis ATCC 700802 (vancomycin-resistant strain); assay type: cell-based, Enterococcus faecalis; conditions: ATCC 700802, 20 h
From the text: (§1) The following Gram-negative bacteria were used in our study: A. baumannii ATCC 19606, E. coli ATCC 11775, E. coli AIC221 (E. coli MG1655 phnE_2::FRT), E. coli AIC222 (E. coli MG1655 pmrA53 phnE_2::FRT (colistin resistant)), K. pneumoniae ATCC 13883, P. aeruginosa PAO1 and P. aeruginosa PA14. The following Gram-positive bacteria were also used in our study: S. aureus ATCC 12600, S. aureus ATCC BAA-1556 (methicillin-resistant strain), E. faecalis ATCC 700802 (vancomycin-resistant strain) and E. faecium ATCC 700221 (vancomycin-resistant strain). Bacteria were grown from frozen stocks and plated on Luria–Bertani (LB) or Pseudomonas isolation agar plates (P. aeruginosa strains) and incubated overnight at 37 °C. After the incubation period, a single colony was transferred to 5 ml of LB medium, and cultures were incubated overnight (16 h) at 37 °C. The following day, an inoculum was prepared by diluting the overnight cultures 1:100 in 5 ml of the respective media and incubating them at 37 °C until bacteria reached logarithmic phase (OD600 = 0.3–0.5).
The in vitro antimicrobial activity of the peptides was assessed by using the broth microdilution assay. […] Aqueous solutions of the peptides were added to the plate at concentrations ranging from 1 to 64 μmol l^−1. […] The optical density of the plates was measured at 600 nm using a spectrophotometer. […]

[2] = system: S. aureus ATCC BAA-1556 (methicillin-resistant strain); assay type: cell-based, Staphylococcus aureus; conditions: ATCC BAA-1556, 20 h
From the text: as §1
(§2) The in vitro antimicrobial activity of the peptides was assessed by using the broth microdilution assay. […] Aqueous solutions of the peptides were added to the plate at concentrations ranging from 1 to 64 μmol l^−1. […] The optical density of the plates was measured at 600 nm using a spectrophotometer. All assays were done as three biological replicates.

S. aureus ATCC 12600 = assay type: cell-based, Staphylococcus aureus; conditions: ATCC 12600, 20 h
From the text: as §1, §2

[3] = system: E. faecium ATCC 700221 (vancomycin-resistant strain); assay type: cell-based, Enterococcus faecium; conditions: ATCC 700221, 20 h
From the text: as §1, §2

E. coli ATCC 11775 = assay type: cell-based, Escherichia coli; conditions: ATCC 11775, 20 h
From the text: as §1, §2

E. coli AIC221 = assay type: cell-based, Escherichia coli; conditions: AIC221, 20 h
From the text: as §1, §2

K. pneumoniae ATCC 13883 = assay type: cell-based, Klebsiella pneumoniae; conditions: ATCC 13883, 20 h
From the text: as §1, §2

Structure (SMILES)	CC50 (HEK293T cells) [µM]	TI (therapeutic index) (HEK293T cells)	Minimal inhibitory concentration, E. faecalis ATCC700802-VRE [1] [µM]	Minimal inhibitory concentration, S. aureus ATCC BAA-1556-MRSA [2] [µM]	Minimal inhibitory concentration, S. aureus ATCC12600 (S. aureus ATCC 12600) [µM]	Minimal inhibitory concentration, E. faecium ATCC700221-VRE [3] [µM]	Minimal inhibitory concentration, E. coli ATCC11775 (E. coli ATCC 11775) [µM]	Minimal inhibitory concentration, E. coli AIC221 (E. coli AIC221) [µM]	Minimal inhibitory concentration, K. pneumoniae ATCC133883 (K. pneumoniae ATCC 13883) [µM]
CC[C@H](C)[C@H](NC(=O)[C@H](CO)NC(=O)[C@H](CCCNC(=N)N)NC(=O)[C@H](C)NC(=O)[C@H](Cc1c[nH]cn1)NC(=O)[C@H](CC(C)C)NC(=O)[C@H](CS)NC(=O)[C@H](C)NC(=O)[C@@H](N)CCCNC(=N)N)C(=O)N[C@@H](C)C(=O)N[C@@H](CCCNC(=N)N)C(=O)N[C@@H](CC(C)C)C(=O)N[C@@H](Cc1c[nH]cn1)C(=O)N[C@@H](CCCCN)C(=O)N[C@@H](CCCNC(=N)N)C(=O)N[C@@H](Cc1c[nH]c2ccccc12)C(=O)N[C@@H](CCCNC(=N)N)C(=O)N1CCC[C@H]1C(=O)N[C@H](C(=O)N[C@@H](Cc1c[nH]cn1)C(=O)N[C@@H](CCC(N)=O)C(=O)NCC(=O)N[C@@H](CC(C)C)C(=O)NCC(=O)N[C@@H](CC(C)C)C(=O)N[C@@H](CCCCN)C(=O)O)C(C)C [Mammuthusin-2] (H-RACLHARSIARLHKRWRPVHQGLGLK-OH; N-terminus and C-terminus assumed)	> 128	> 4	–	–	–	–	–	–	–
CC[C@H](C)[C@H](N)C(=O)N[C@@H](Cc1ccccc1)C(=O)N[C@@H](CC(C)C)C(=O)N[C@@H](Cc1c[nH]cn1)C(=O)N[C@@H](CC(C)C)C(=O)N[C@@H](CCCCN)C(=O)N[C@H](C(=O)N[C@@H](CC(C)C)C(=O)N[C@@H](CCCCN)C(=O)N[C@H](C(=O)N[C@H](C(=O)N[C@@H](CCCNC(=N)N)C(=O)N[C@@H](CC(C)C)C(=O)N[C@@H](CC(C)C)C(=O)O)[C@@H](C)CC)[C@@H](C)CC)[C@@H](C)CC [Elephasin-2] (H-IFLHLKILKIIRLL-OH; N-terminus and C-terminus assumed)	> 128	–	8 (≈ 13.9 µg/mL)	1 (≈ 1.73 µg/mL)	1 (≈ 1.73 µg/mL)	1 (≈ 1.73 µg/mL)	16 (≈ 27.7 µg/mL)	2 (≈ 3.47 µg/mL)	–
CC[C@H](C)[C@H](NC(=O)[C@@H](N)CC(C)C)C(=O)N[C@H](C(=O)N[C@@H](CS)C(=O)N[C@@H](Cc1ccccc1)C(=O)N[C@@H](Cc1ccccc1)C(=O)N[C@@H](CCCNC(=N)N)C(=O)N[C@@H](CCC(N)=O)C(=O)N[C@@H](CC(C)C)C(=O)N[C@@H](CCCCN)C(=O)N[C@@H](Cc1ccccc1)C(=O)N[C@@H](Cc1c[nH]cn1)C(=O)N[C@@H](Cc1ccccc1)C(=O)O)C(C)C [Megalocerin-1] (H-LIVCFFRQLKFHF-OH; N-terminus and C-terminus assumed)	> 128	> 16	–	–	–	8 (≈ 13.6 µg/mL)	–	–	64 (≈ 109 µg/mL)
CC(C)C[C@H](NC(=O)CNC(=O)[C@H](CCCNC(=N)N)NC(=O)[C@H](CCCCN)NC(=O)[C@H](CCCNC(=N)N)NC(=O)[C@@H](N)CCCCN)C(=O)N[C@@H](CCCCN)C(=O)N[C@@H](CC(C)C)C(=O)N[C@@H](C)C(=O)N[C@H](C(=O)N[C@@H](C)C(=O)N[C@@H](CC(C)C)C(=O)N[C@@H](CO)C(=O)N[C@@H](CC(C)C)C(=O)N[C@@H](CC(N)=O)C(=O)N[C@@H](CC(N)=O)C(=O)N[C@@H](CCCCN)C(=O)N[C@@H](Cc1ccccc1)C(=O)O)[C@@H](C)O [Mylodonin-2] (H-KRKRGLKLATALSLNNKF-OH; N-terminus and C-terminus assumed)	> 128	–	–	–	–	–	–	–	–
